Assay results published in paper PMC5908784, “Extracellular loops 2 and 3 of the calcitonin receptor selectively modify agonist binding and efficacy” (Biochemical Pharmacology, 2018).
Numbering of substitutions follows the chain as printed. Where a SMILES comes first, the peptide text is derived from it. Bridges are numbered along the chain shown (N, C = ends).

Columns and labels:
Assay in all cases: IP1 accumulation
Assay type in all cases: cell-based
Conditions in all cases: mean ± S.E.M.; for Emax: IP1 maximal response, SEM
[1] = target: T1, hCTR I279A (Homo sapiens, UniProt P30988, I279A)
T1 construct: expressed in transfected cells
T1 sequence (P30988 25-474 I279A): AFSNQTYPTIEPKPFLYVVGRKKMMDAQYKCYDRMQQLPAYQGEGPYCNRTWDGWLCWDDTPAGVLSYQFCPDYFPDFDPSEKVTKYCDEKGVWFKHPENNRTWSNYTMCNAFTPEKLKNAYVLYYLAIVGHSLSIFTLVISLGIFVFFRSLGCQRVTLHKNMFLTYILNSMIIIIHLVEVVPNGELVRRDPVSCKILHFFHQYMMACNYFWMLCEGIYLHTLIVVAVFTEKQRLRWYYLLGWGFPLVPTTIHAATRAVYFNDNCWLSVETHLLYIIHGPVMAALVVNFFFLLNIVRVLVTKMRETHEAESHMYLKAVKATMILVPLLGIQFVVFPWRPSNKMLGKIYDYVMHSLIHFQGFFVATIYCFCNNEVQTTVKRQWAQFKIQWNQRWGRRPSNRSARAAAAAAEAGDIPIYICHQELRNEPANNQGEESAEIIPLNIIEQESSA
In short: (§1)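 Concentration-response curves were fitted to a 3-parameter logistic model to estimate EC50 and Emax. Cells had been exposed to ligand for 60 min with LiCl, and lysate IP1 determined by HTRF, with normalization to 100 μM ATP.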

[2] = target: T2, hCTR M367A (Homo sapiens, UniProt P30988, M367A)
T2 construct: c-Myc (N); expressed in transfected cells
T2 sequence (P30988 25-474 M367A): T1 sequence (P30988 25-474 I279A) with A255I, M343A
In short: as §1

[3] = target: T3, hCTR Y372A (Homo sapiens, UniProt P30988, Y372A)
T3 construct: c-Myc (N); expressed in transfected cells
T3 sequence (P30988 25-474 Y372A): T1 sequence (P30988 25-474 I279A) with A255I, Y348A
In short: as §1

[4] = target: T4, hCTR L297A (Homo sapiens, UniProt P30988, L297A)
T4 construct: c-Myc (N); expressed in transfected cells
T4 sequence (P30988 25-474 L297A): T1 sequence (P30988 25-474 I279A) with A255I, L273A
In short: as §1

[5] = target: T5, hCTR R362A (Homo sapiens, UniProt P30988, R362A)
T5 construct: expressed in transfected cells
T5 sequence (P30988 25-474 R362A): T1 sequence (P30988 25-474 I279A) with A255I, R338A
In short: as §1

[6] = IP1, CV1-FlpIn cells, 60 min, LiCl

Row | Structure (SMILES) | Emax [1] | Emax [2] | Emax [3] | Emax [4] | Emax [5] | EC50 [1, 6] | EC50 [2, 6] | EC50 [3, 6] | EC50 [4, 6] | EC50 [5, 6]
1 | CC[C@H](C)[C@H](NC(=O)[C@H](C)NC(=O)[C@@H](NC(=O)[C@H](CCC(N)=O)NC(=O)[C@@H]1CCCN1C(=O)[C@H](Cc1ccccc1)NC(=O)[C@@H](NC(=O)[C@H](Cc1c[nH]cn1)NC(=O)[C@H](Cc1ccccc1)NC(=O)[C@H](CCCCN)NC(=O)[C@H](CC(N)=O)NC(=O)[C@H](Cc1ccccc1)NC(=O)[C@H](CC(=O)O)NC(=O)[C@H](CCC(N)=O)NC(=O)[C@@H](NC(=O)[C@H](Cc1ccc(O)cc1)NC(=O)[C@@H](NC(=O)CNC(=O)[C@H](CC(C)C)NC(=O)[C@H](CCSC)NC(=O)[C@@H]1CSSC[C@H](N)C(=O)NCC(=O)N[C@@H](CC(N)=O)C(=O)N[C@@H](CC(C)C)C(=O)N[C@@H](CO)C(=O)N[C@@H]([C@@H](C)O)C(=O)N1)[C@@H](C)O)[C@@H](C)O)[C@@H](C)O)[C@@H](C)O)C(=O)NCC(=O)N[C@H](C(=O)NCC(=O)N[C@@H](C)C(=O)N1CCC[C@H]1C(N)=O)C(C)C [hCT] | 79 ± 7% | 149 ± 8% | 68 ± 9% | 52 ± 5% | 77 ± 11% |  |  |  |  | 
2 | CC(C)C[C@H](NC(=O)[C@H](CCCCN)NC(=O)CNC(=O)[C@H](CC(C)C)NC(=O)[C@@H](NC(=O)[C@@H]1CSSC[C@H](N)C(=O)N[C@@H](CO)C(=O)N[C@@H](CC(N)=O)C(=O)N[C@@H](CC(C)C)C(=O)N[C@@H](CO)C(=O)N[C@@H]([C@@H](C)O)C(=O)N1)C(C)C)C(=O)N[C@@H](CO)C(=O)N[C@@H](CCC(N)=O)C(=O)N[C@@H](CCC(=O)O)C(=O)N[C@@H](CC(C)C)C(=O)N[C@@H](Cc1c[nH]cn1)C(=O)N[C@@H](CCCCN)C(=O)N[C@@H](CC(C)C)C(=O)N[C@@H](CCC(N)=O)C(=O)N[C@H](C(=O)N[C@@H](Cc1ccc(O)cc1)C(=O)N1CCC[C@H]1C(=O)N[C@@H](CCCNC(=N)N)C(=O)N[C@H](C(=O)N[C@@H](CC(N)=O)C(=O)N[C@H](C(=O)NCC(=O)N[C@@H](CO)C(=O)NCC(=O)N[C@H](C(=O)N1CCC[C@H]1C(N)=O)[C@@H](C)O)[C@@H](C)O)[C@@H](C)O)[C@@H](C)O [sCT] | 97 ± 7% | 123 ± 6% | 46 ± 4% | 69 ± 7% | 64 ± 5% |  |  |  |  | 
3 | CSCC[C@H](NC(=O)CNC(=O)[C@H](CO)NC(=O)[C@H](Cc1ccccc1)NC(=O)[C@H](CCCNC(=N)N)NC(=O)[C@H](Cc1c[nH]cn1)NC(=O)[C@H](Cc1ccccc1)NC(=O)[C@H](CC(N)=O)NC(=O)[C@H](CC(N)=O)NC(=O)[C@H](CC(C)C)NC(=O)[C@H](CC(N)=O)NC(=O)[C@H](CCCNC(=N)N)NC(=O)[C@H](Cc1c[nH]c2ccccc12)NC(=O)[C@H](Cc1ccc(O)cc1)NC(=O)[C@H](C)NC(=O)[C@H](CO)NC(=O)[C@H](CC(C)C)NC(=O)[C@@H](NC(=O)[C@@H]1CSSC[C@H](N)C(=O)N[C@@H](CO)C(=O)N[C@@H](CC(N)=O)C(=O)N[C@@H](CC(C)C)C(=O)N[C@@H](CO)C(=O)N[C@@H]([C@@H](C)O)C(=O)N1)C(C)C)C(=O)NCC(=O)N[C@@H](Cc1ccccc1)C(=O)NCC(=O)N1CCC[C@H]1C(=O)N[C@@H](CCC(=O)O)C(=O)N[C@H](C(=O)N1CCC[C@H]1C(N)=O)[C@@H](C)O [pCT] (H-CSNLSTCVLSAYWRNLNNFHRFSGMGFGPETP-NH2; disulfide 1-7) | 116 ± 10% | 101 ± 8% | 44 ± 5% | 68 ± 5% | 47 ± 9% | 6.61 nM | 5.13 nM | 2.88 nM | 2 nM | 19.5 nM
